Measured values reported in patent US8574563B2 (Bristol-Myers Squibb Company, priority 2006, dated 2013).

What follows are compounds tested on HCV 1b-377-neo replicon cells (assay: HCV replicon assay, HCV 1b-377-neo replicon cells (1b FRET)). Settings: Hepatitis C virus, HCV 1b-377-neo replicon cells; HCV 1b genotype; read-out: EC50 range against HCV 1b (Table 2, Range).
Assay type: cell-based, Hepatitis C virus genotype 1b
Summary of the method: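 Compounds tested in HCV genotype 1b-377-neo replicon cells with a FRET read-out. Cells resistant to a reference NS5A inhibitor through a Y2065H NS5A mutation were run alongside wild-type cells.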

Compared with `COC(=O)N[C@@H](C(=O)N1CCC[C@@H]1c1ncc(-c2ccc(-c3ccc(-c4cnc([C@@H]5CC[C@H](c6ccccc6)N5C(=O)[C@H](NC(=O)OC)c5ccccc5)[nH]4)cc3)cc2)[nH]1)c1ccccc1` [Example F6, methyl ((1R)-2-((2R)-2-(5-(4′-(2-((2S,5R)-1-((2R)-2-((methoxycarbonyl)amino)-2-phenylacetyl)-5-phenyl-2-pyrrolidinyl)-1H-imidazol-5-yl)-4-biphenylyl)-1H-imidazol-2-yl)-1-pyrrolidinyl)-2-oxo-1-phenylethyl)carbamate], `COC(=O)N[C@@H](C(=O)N1CCC[C@H]1c1ncc(-c2ccc(-c3ccc(-c4cnc([C@@H]5CCCN5C(=O)Cc5cccc(C)c5)[nH]4)cc3)cc2)[nH]1)c1ccccc1` [Example 84-71, methyl ((1R)-2-((2S)-2-(5-(4′-(2-((2S)-1-((3-methylphenyl)acetyl)-2-pyrrolidinyl)-1H-imidazol-5-yl)-4-biphenylyl)-1H-imidazol-2-yl)-1-pyrrolidinyl)-2-oxo-1-phenylethyl)carbamate] is higher in EC50: 0.001 to 0.999 nM for the first, 1 to 99 nM for the second.

First: COC(=O)N[C@@H](Cc1cccnc1)C(=O)N1CCC[C@H]1c1ncc(-c2ccc(-c3ccc(-c4cnc([C@@H]5CCCN5C(=O)[C@@H](NC(=O)OC)[C@@H](C)OC)[nH]4)cc3)cc2)[nH]1 [cj-82, methyl ((1S)-2-((2S)-2-(5-(4′-(2-((2S)-1-((2S,3R)-3-methoxy-2-((methoxycarbonyl)amino)butanoyl)-2-pyrrolidinyl)-1H-imidazol-5-yl)-4-biphenylyl)-1H-imidazol-2-yl)-1-pyrrolidinyl)-2-oxo-1-(3-pyridinylmethyl)ethyl)carbamate]
Second: COC[C@H](NC(=O)OC)C(=O)N1CCC[C@H]1c1ncc(-c2ccc(-c3ccc(-c4cnc([C@@H]5CCCN5C(=O)[C@H](COC)NC(=O)OC)[nH]4)cc3)cc2)[nH]1 [Example M26, methyl ((1S)-2-((2S)-2-(5-(4′-(2-((2S)-1-(N-(methoxycarbonyl)-O-methyl-L-seryl)-2-pyrrolidinyl)-1H-imidazol-5-yl)-4-biphenylyl)-1H-imidazol-2-yl)-1-pyrrolidinyl)-1-(methoxymethyl)-2-oxoethyl)carbamate]
The EC50 of the first is lower: 0.001 to 0.999 nM for the first, 100 to 999 nM for the second.

First: COC(=O)N[C@@H](C)C(=O)N1CCC[C@H]1c1ncc(-c2ccc(-c3ccc(-c4cnc([C@@H]5CCCN5C(=O)[C@H](Nc5ncccn5)C(C)C)[nH]4)cc3)cc2)[nH]1 [cj-11j, methyl ((1S)-1-methyl-2-oxo-2-((2S)-2-(5-(4′-(2-((2S)-1-(N-2-pyrimidinyl-D-valyl)-2-pyrrolidinyl)-1H-imidazol-5-yl)-4-biphenylyl)-1H-imidazol-2-yl)-1-pyrrolidinyl)ethyl)carbamate]
Second: CN[C@@H](C)C(=O)N1CCC[C@H]1c1ncc(-c2ccc(-c3ccc(-c4cnc([C@@H]5CCCN5C(=O)[C@H](C)NC)[nH]4)cc3)cc2)[nH]1 [LS6, (2S,2′S)-1,1′-(4,4′-biphenyldiylbis(1H-imidazole-5,2-diyl(2S)-2,1-pyrrolidinediyl))bis(N-methyl-1-oxo-2-propanamine)]
The EC50 of the first is lower: 0.001 to 0.999 nM for the first, 100 to 999 nM for the second.

`Cc1nc(CC(=O)N2CCC[C@H]2c2ncc(-c3ccc(-c4ccc(-c5cnc([C@@H]6CCCN6C(=O)[C@@H](c6ccccc6)N6CCCCC6)[nH]5)cc4)cc3)[nH]2)cs1` [Example 107-25, 1-((1R)-2-((2S)-2-(5-(4′-(2-((2S)-1-((2-methyl-1,3-thiazo1-4-yl)acetyl)-2-pyrrolidinyl)-1H-imidazol-5-yl)-4-biphenylyl)-1H-imidazol-2-yl)-1-pyrrolidinyl)-2-oxo-1-phenylethyl) piperidine] and `O=C(c1ccccc1F)N1CCC[C@H]1c1ncc(-c2ccc(-c3ccc(-c4cnc([C@@H]5CCCN5C(=O)[C@@H](c5ccccc5)N5CCCCC5)[nH]4)cc3)cc2)[nH]1` [Example 107-3, 1-((1R)-2-((2S)-2-(5-(4′-(2-((2S)-1-(2-fluorobenzoyl)-2-pyrrolidinyl)-1H-imidazol-5-yl)-4-biphenylyl)-1H-imidazol-2-yl)-1-pyrrolidinyl)-2-oxo-1-phenylethyl) piperidine] fall in the same range of EC50: 0.001 to 0.999 nM for the first, 0.001 to 0.999 nM for the second.

First: COC(=O)N[C@@H]1CCCC[C@H]1C(=O)N1CCC[C@H]1c1ncc(-c2ccc(-c3ccc(-c4cnc([C@@H]5CCCN5C(=O)[C@@H]5CCCC[C@H]5NC(=O)OC)[nH]4)cc3)cc2)[nH]1 [cj-139, dimethyl (4,4′-biphenyldiylbis(1H-imidazole-5,2-diyl(2S)-2,1-pyrrolidinediylcarbonyl(1R,2R)-2,1-cyclohexanediyl))biscarbamate]
Second: COC(=O)N[C@@H](C(=O)N1CCC[C@H]1c1ncc(-c2ccc(-c3ccc(-c4cnc([C@@H]5CCCN5C(=O)[C@H](NC(=O)OC)C5CC5)[nH]4)cc3)cc2)[nH]1)C1CC1 [Example M22, dimethyl (4,4′-biphenyldiylbis(1H-imidazole-5,2-diyl(2S)-2,1-pyrrolidinediyl((1R)-1-cyclopropyl-2-oxo-2,1-ethanediyl)))biscarbamate]
The EC50 of the first is lower: 1 to 99 nM for the first, 1000 to 10000 nM for the second. The first is the more potent here.

First: CCN(C1CC1)[C@@H](C(=O)N1CCC[C@H]1c1ncc(-c2ccc(-c3ccc(-c4cnc([C@@H]5CCCN5C(=O)[C@@H](c5ccccc5)N(CC)C5CC5)[nH]4)cc3)cc2)[nH]1)c1ccccc1 [Example M3, N,N′-(4,4′-biphenyldiylbis(1H-imidazole-5,2-diyl(2S)-2,1-pyrrolidinediyl((1R)-2-oxo-1-phenyl-2,1-ethanediyl)))bis(N-ethylcyclopropanamine)]
Second: CCN(CC)[C@@H](C(=O)N1CCC[C@H]1c1ncc(-c2ccc(-c3ccc(-c4cnc([C@@H]5CCCN5C(=O)[C@H]5CCCC[C@H]5NC(=O)OC)[nH]4)cc3)cc2)[nH]1)c1ccccc1 [cj-94, methyl ((1R,2S)-2-(((2S)-2-(5-(4′-(2-((2S)-1-((2R)-2-(diethylamino)-2-phenylacetyl)-2-pyrrolidinyl)-1H-imidazol-5-yl)-4-biphenylyl)-1H-imidazol-2-yl)-1-pyrrolidinyl)carbonyl)cyclohexyl)carbamate]
The EC50 of the first is higher: 1 to 99 nM for the first, 0.001 to 0.999 nM for the second.

`COC(=O)N[C@H](C(=O)N1C[C@@H](O)C[C@H]1c1ncc(-c2ccc(-c3ccc(-c4cnc([C@@H]5C[C@H](O)CN5C(=O)[C@@H](NC(=O)OC)C(C)C)[nH]4)cc3)cc2)[nH]1)C(C)C` [JG-9, methyl ((1S)-1-(((2S,4S)-4-hydroxy-2-(5-(4′-(2-((2S,4S)-4-hydroxy-1-((2S)-2-((methoxycarbonyl)amino)-3-methylbutanoyl)-2-pyrrolidinyl)-1H-imidazol-5-yl)-4-biphenylyl)-1H-imidazol-2-yl)-1-pyrrolidinyl)carbonyl)-2-methylpropyl)carbamate] and `CCNC(=O)NCc1ccc(C[C@H](NC(=O)OC)C(=O)N2CCC[C@H]2c2ncc(-c3ccc(-c4ccc(-c5cnc([C@@H]6CCCN6C(=O)[C@@H](NC(=O)OC)C(C)C)[nH]5)cc4)cc3)[nH]2)cc1` [cj-115, methyl ((1S)-1-(4-(((ethylcarbamoyl)amino)methyl)benzyl)-2-((2S)-2-(5-(4′-(2-((2S)-1-((2S)-2-((methoxycarbonyl)amino)-3-methylbutanoyl)-2-pyrrolidinyl)-1H-imidazol-5-yl)-4-biphenylyl)-1H-imidazol-2-yl)-1-pyrrolidinyl)-2-oxoethyl)carbamate] fall in the same range of EC50: 0.001 to 0.999 nM for the first, 0.001 to 0.999 nM for the second.

`COC(=O)N[C@H](C(=O)N1CCC[C@H]1c1ncc(-c2ccc(-c3ccc(-c4[nH]c([C@@H]5CCCN5C(=O)[C@@H](NC(=O)OC)[C@@H](C)OC)nc4C(F)(F)F)cc3)cc2)[nH]1)[C@@H](C)OC` [Example J42, methyl ((1S,2R)-2-methoxy-1-(((2S)-2-(5-(4′-(2-((2S)-1-(N-(methoxycarbonyl)-O-methyl-L-threonyl)-2-pyrrolidinyl)-4-(trifluoromethyl)-1H-imidazol-5-yl)-4-biphenylyl)-1H-imidazol-2-yl)-1-pyrrolidinyl)carbonyl)propyl)carbamate] and `CCN(CC)[C@@H](C(=O)N1CCC[C@H]1c1ncc(-c2ccc(-c3ccc(-c4cnc([C@@H]5CCCN5C(=O)[C@@H](NC(=O)OC)C(C)C)[nH]4)cc3)cc2F)[nH]1)c1ccccc1` [Example D44, methyl ((1S)-1-(((2S)-2-(5-(4′-(2-((2S)-1-((2R)-2-(diethylamino)-2-phenylacetyl)-2-pyrrolidinyl)-1H-imidazol-5-yl)-3′-fluoro-4-biphenylyl)-1H-imidazol-2-yl)-1-pyrrolidinyl)carbonyl)-2-methylpropyl) carbamate] fall in the same range of EC50: 0.001 to 0.999 nM for the first, 0.001 to 0.999 nM for the second.

`CN(C)[C@@H](C(=O)N1CCC[C@H]1c1ncc(-c2ccc(-c3ccc(-c4cnc([C@@H]5CCCN5C(=O)N5CCCC5)[nH]4)cc3)cc2)[nH]1)c1ccccc1` [Example 94, (1R)-N,N-dimethyl-2-oxo-1-phenyl-2-((2S)-2-(5-(4′-(2-((2S)-1-(1-pyrrolidinylcarbonyl)-2-pyrrolidinyl)-1H-imidazol-5-yl)-4-biphenylyl)-1H-imidazol-2-yl)-1-pyrrolidinyl)ethanamine] and `CN(C)[C@@H](C(=O)N1CCC[C@H]1c1ncc(-c2ccc(-c3ccc(-c4cnc([C@@H]5CCCN5C(=O)C5CN(C(=O)OC(C)(C)C)C5)[nH]4)cc3)cc2)[nH]1)c1ccccc1` [Example 94-25, tert-butyl 3-(((2S)-2-(5-(4′-(2-((2S)-1-((2R)-2-(dimethylamino)-2-phenylacetyl)-2-pyrrolidinyl)-1H-imidazol-5-yl)-4-biphenylyl)-1H-imidazol-2-yl)-1-pyrrolidinyl)carbonyl)-1-azetidinecarboxylate] fall in the same range of EC50: 0.001 to 0.999 nM for the first, 0.001 to 0.999 nM for the second.

Compared with `CN(C)[C@@H](C(=O)N1CCC[C@H]1c1ncc(-c2cnc(-c3cnc(-c4cnc([C@@H]5CCCN5C(=O)[C@@H](c5ccccc5)N(C)C)[nH]4)cn3)cn2)[nH]1)c1ccccc1` [Example 153c-5, (1R,1′R)-2,2′-(2,2′-bipyrazine-5,5′-diylbis(1H-imidazole-5,2-diyl(2S)-2,1-pyrrolidinediyl))bis(N,N-dimethyl-2-oxo-1-phenylethanamine)], `COC(=O)N[C@H](CC(=O)N1CCC[C@H]1c1ncc(-c2ccc(-c3ccc(-c4cnc([C@@H]5CCCN5C(=O)C[C@H](Cc5cccs5)NC(=O)OC)[nH]4)cc3)cc2)[nH]1)Cc1cccs1` [cj-136, dimethyl (4,4′-biphenyldiylbis(1H-imidazole-5,2-diyl(2S)-2,1-pyrrolidinediyl((2R)-4-oxo-1-(2-thienyl)-4,2-butanediyl)))biscarbamate] is lower in EC50: 1 to 99 nM for the first, 0.001 to 0.999 nM for the second.
